Laboratory results taken from PMC4061985 (Journal of immunology (Baltimore, Md. : 1950), 2009).
Residues, ends and D or L forms follow the SMILES beside them.

Assays:
HLA-DR0901 protein = HLA-DR0901 protein (Homo sapiens, UniProt P01903+P01911, A100R/A103E/D57H/D86V/F55Y/F60I/F76Y/I96F/K127E/L162R/M171V/P40D/Q125H/Q99R/R33Q/R42F/S133A/S66N/T210M/V115G/W38K/Y107V/Y59G/Y89S); assay: Peptide binding competition assay, DR0901
[1] = biological target: HLA-DRA1/B1*0901, soluble recombinant protein (human)

Row | Compound | Kd (HLA-DR0901 protein) | Kd [1]
1 | CC[C@H](C)[C@H](NC(=O)[C@H](CCCCN)NC(=O)[C@H](CC(=O)O)NC(=O)[C@H](CC(C)C)NC(=O)[C@H](CO)NC(=O)[C@H](Cc1ccc(O)cc1)NC(=O)[C@H](CC(N)=O)NC(=O)[C@H](CCSC)NC(=O)[C@H](CC(N)=O)NC(=O)[C@@H](N)CC(C)C)C(=O)N[C@H](C(=O)N[C@H](C(=O)N[C@@H](CC(=O)O)C(=O)O)C(C)C)[C@@H](C)CC [LNMNYSLDKIIVD] (H-LNMNYSLDKIIVD-OH) | 600 ± 150 nM | –
2 | CC[C@H](C)[C@H](NC(=O)[C@H](CCCCN)NC(=O)[C@H](CC(=O)O)NC(=O)[C@H](CC(C)C)NC(=O)[C@H](CO)NC(=O)[C@H](Cc1ccc(O)cc1)NC(=O)[C@H](CC(N)=O)NC(=O)[C@@H](NC(=O)[C@H](CC(N)=O)NC(=O)[C@@H](N)CC(C)C)C(C)C)C(=O)N[C@H](C(=O)N[C@H](C(=O)N[C@@H](CC(=O)O)C(=O)O)C(C)C)[C@@H](C)CC [LNVNYSLDKIIVD] (H-LNVNYSLDKIIVD-OH) | 440 ± 130 nM | –
3 | CC[C@H](C)[C@H](NC(=O)[C@H](CCCCN)NC(=O)[C@H](CC(=O)O)NC(=O)[C@H](CC(C)C)NC(=O)[C@H](CO)NC(=O)[C@H](Cc1ccc(O)cc1)NC(=O)[C@H](CC(N)=O)NC(=O)[C@H](Cc1ccc(O)cc1)NC(=O)[C@H](CC(N)=O)NC(=O)[C@@H](N)CC(C)C)C(=O)N[C@H](C(=O)N[C@H](C(=O)N[C@@H](CC(=O)O)C(=O)O)C(C)C)[C@@H](C)CC [LNYNYSLDKIIVD] (H-LNYNYSLDKIIVD-OH) | 113 ± 40 nM | –
4 | TT 503–515 peptide, unmodified | – | 73 nM
